Legend:
[1] = tested on: adult patients diagnosed with DCP, choreiform predominant; assay: Example 3: Phase 3 efficacy study in adults; assay type: in vivo, human
Method: (§1) A Phase 3 study to evaluate the efficacy and safety of deutetrabenazine is performed on a population consisting of male and female patients, diagnosed with DCP. Patients may be included in the study only if they meet all of the following criteria: • 1. Patient is older than 18 years of age at baseline. • 2. Patient has had cerebral palsy (CP) symptoms since infancy (≤2 years). • 3. Patient has a diagnosis of DCP according to the Surveillance of Cerebral Palsy in Europe criteria. • 4. Patient has a total score of ≥10 on the MD-CRS part II items at the baseline visit, based on investigator scoring of chorea. • 5. Patient's symptoms are causing functional problems determined by a Clinical Global
Impression of Severity (CGI-S) score of 4 or greater based on investigator scoring. • 6. Choreiform is the predominant movement disorder as assessed by the EAB at screening.
(§2) Patients will receive 6 mg to 48 mg of deutetrabenazine. The titration scheme and maximum dose follows the one in the parent study, Example 1, supra.

[2] = tested on: patients (age 6 through 18 years) with DCP with predominant choreiform movement disorder
[3] = tested on: children and adolescents with dyskinesia in cerebral palsy
[4] = tested on: pediatric patients diagnosed with DCP, predominant motor symptoms dystonic; assay: Example 4: Phase 3 efficacy study, predominantly dystonic DCP; assay type: in vivo, human
Method: as §1, with “6 through” for “older than”, “age (inclusive)” for “age”
Impression of Severity (CGI-S) score of 4 or greater based on investigator scoring. • 6. Patient's predominant motor symptoms are dystonic.
as §2

[5] = relative to tetrabenazine; U.S. Pat. No. 8,524,733; cited from earlier work
patients with CP = settings: cited from earlier work
[6] = versus placebo, from baseline to week 15

Structure (SMILES): [2H]C([2H])([2H])Oc1cc2c(cc1OC([2H])([2H])[2H])[C@H]1CC(=O)[C@H](CC(C)C)CN1CC2 (racemic) [deutetrabenazine, (RR,SS)-1,3,4,6,7,11b-hexahydro-9,10-di(methoxy-d3)-3-(2-methylpropyl)-2H-benzo[a]quinolizin-2-one]
- safety profile [1]: favorable safety profile
- abnormal involuntary movements associated with dyskinesia in cerebral palsy ([1]; 6 mg to 48 mg): reduce abnormal involuntary movements
- overall safety and efficacy of treatment ([2]; 6-48 mg/day oral, versus placebo): safe and effective
- PGI-I response ([2]; Much Improved or Somewhat Improved in the PGI-I score): demonstrate a PGI-I response
- CGI-I response ([2]; Much Improved or Very Much Improved in the CGI-I score): demonstrate a CGI-I response
- CaGI-I response ([2]; Much Improved or Very Much Improved in the CaGI-I score): demonstrate a CaGI-I response
- PEDI-CAT ([2]; activities of daily living, parent/caregiver completed): improvement
- UHDRS-TMC ([2]; in vivo): significant reductions
- UHDRS-TMD ([2]; in vivo): significant reductions
- UHDRS-TMS ([2]; in vivo): significant reductions
- safety by C-SSRS, ESRS, CBCL, ESS and lack of serious adverse events ([2]; in vivo): safe
- CP module of the PedsQL ([2]; quality of life, patient/caregiver): significant reductions
- CGI-S response ([2]; reduction of >1 point in the CGI-S score): demonstrate a CGI-S response
- reduction in the CGI-I score [2, 6]: 0.5-0.7 points
- reduction in the CaGI-I score [2, 6]: 0.5-0.7 points
- reduction in the MD-CRS part I total score [2, 6]: 2-4 points
- reduction in the MD-CRS part II total score [2, 6]: 0.5-4 points
- all primary and secondary endpoints ([2]; versus placebo, week 15): significant improvements
- safety profile ([3]; in vivo): favorable safety profile
- abnormal involuntary movements associated with dyskinesia in cerebral palsy ([3]; long term administration of tolerable amounts): reduce abnormal involuntary movements
- safety profile [4]: favorable safety profile
- dystonic abnormal involuntary movements associated with dyskinesia in cerebral palsy ([4]; 6 mg to 48 mg): reduce dystonic abnormal involuntary movements
- half-life of its active metabolites [5]: increased half-life

Structure (SMILES): Nc1ccncc1 [Dalfampridine]
- functional improvement (patients with CP): failed to demonstrate functional improvement
